Key:
Assay type in all cases: ADME
[1] = molecular target: T1, ATP-binding cassette sub-family C member 4 (Homo sapiens, UniProt O15439); test: Inhibitors of transporters of clinical importance in the absorption and disposition of drugs, MRP4
T1 sequence (O15439 whole entry): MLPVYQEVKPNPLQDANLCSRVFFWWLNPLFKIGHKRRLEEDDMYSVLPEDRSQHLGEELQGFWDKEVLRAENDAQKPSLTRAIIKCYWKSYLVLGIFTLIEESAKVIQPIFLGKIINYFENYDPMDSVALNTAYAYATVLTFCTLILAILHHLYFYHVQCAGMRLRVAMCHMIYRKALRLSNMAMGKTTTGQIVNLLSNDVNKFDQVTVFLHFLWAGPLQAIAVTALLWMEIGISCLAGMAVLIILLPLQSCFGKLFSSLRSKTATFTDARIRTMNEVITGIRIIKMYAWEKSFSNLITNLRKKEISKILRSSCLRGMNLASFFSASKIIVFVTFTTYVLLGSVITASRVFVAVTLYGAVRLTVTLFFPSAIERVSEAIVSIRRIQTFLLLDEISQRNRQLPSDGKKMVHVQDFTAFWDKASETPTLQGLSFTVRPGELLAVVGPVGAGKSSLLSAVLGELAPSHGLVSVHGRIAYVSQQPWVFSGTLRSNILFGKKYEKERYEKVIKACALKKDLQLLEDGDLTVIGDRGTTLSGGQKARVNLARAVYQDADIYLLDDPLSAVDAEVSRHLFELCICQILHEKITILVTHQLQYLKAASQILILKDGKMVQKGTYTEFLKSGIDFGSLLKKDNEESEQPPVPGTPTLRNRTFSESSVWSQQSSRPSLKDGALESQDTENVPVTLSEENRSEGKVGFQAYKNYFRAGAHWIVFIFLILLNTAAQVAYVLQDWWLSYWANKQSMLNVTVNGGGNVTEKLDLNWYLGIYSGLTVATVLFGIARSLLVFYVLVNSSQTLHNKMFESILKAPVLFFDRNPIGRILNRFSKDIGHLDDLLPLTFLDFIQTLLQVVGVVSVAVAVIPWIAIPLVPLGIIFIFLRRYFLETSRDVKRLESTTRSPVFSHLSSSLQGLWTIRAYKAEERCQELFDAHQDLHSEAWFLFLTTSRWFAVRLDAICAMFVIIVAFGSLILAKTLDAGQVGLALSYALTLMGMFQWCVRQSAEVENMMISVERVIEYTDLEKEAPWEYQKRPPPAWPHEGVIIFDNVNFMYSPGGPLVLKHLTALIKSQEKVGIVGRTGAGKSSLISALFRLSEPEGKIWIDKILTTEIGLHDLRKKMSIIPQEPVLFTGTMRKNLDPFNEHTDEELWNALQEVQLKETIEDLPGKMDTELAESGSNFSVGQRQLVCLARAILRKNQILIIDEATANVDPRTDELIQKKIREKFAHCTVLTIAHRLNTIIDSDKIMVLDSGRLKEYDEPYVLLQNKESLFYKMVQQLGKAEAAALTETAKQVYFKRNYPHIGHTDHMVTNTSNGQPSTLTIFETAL

[2] = molecular target: ATP-binding cassette sub-family C member 2 (Homo sapiens, UniProt Q92887); test: Inhibitors of transporters of clinical importance in the absorption and disposition of drugs, MRP2
[3] = molecular target: ATP-binding cassette sub-family C member 3 (Homo sapiens, UniProt O15438); test: Inhibitors of transporters of clinical importance in the absorption and disposition of drugs, MPR3
[4] = molecular target: T2, Solute carrier family 15 member 2 (Homo sapiens, UniProt Q16348); test: Inhibitors of transporters of clinical importance in the absorption and disposition of drugs, PEPT2
T2 sequence (Q16348 whole entry): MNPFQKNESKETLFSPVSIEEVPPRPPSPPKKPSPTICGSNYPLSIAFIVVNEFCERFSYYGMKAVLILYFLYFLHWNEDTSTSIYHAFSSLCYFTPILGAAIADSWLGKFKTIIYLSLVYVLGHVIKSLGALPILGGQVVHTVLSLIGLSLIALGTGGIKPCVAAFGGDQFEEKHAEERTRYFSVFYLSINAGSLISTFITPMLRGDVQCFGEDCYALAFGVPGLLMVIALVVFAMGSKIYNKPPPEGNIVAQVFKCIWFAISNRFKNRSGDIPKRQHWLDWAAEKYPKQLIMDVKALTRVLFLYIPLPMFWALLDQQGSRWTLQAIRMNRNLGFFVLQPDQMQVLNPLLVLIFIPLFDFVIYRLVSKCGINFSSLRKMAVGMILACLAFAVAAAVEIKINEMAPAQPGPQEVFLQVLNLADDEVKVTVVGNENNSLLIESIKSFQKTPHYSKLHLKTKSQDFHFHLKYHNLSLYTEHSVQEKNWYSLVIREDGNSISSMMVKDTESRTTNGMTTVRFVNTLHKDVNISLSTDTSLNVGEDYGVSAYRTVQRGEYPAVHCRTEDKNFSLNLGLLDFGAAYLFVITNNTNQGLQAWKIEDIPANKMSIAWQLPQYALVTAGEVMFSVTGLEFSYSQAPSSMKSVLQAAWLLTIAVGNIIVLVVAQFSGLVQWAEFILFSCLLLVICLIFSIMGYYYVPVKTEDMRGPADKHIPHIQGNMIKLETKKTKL

[5] = molecular target: T3, Solute carrier organic anion transporter family member 1A2 (Homo sapiens, UniProt P46721); test: Inhibitors of transporters of clinical importance in the absorption and disposition of drugs, OATP1A2
T3 sequence (P46721 whole entry): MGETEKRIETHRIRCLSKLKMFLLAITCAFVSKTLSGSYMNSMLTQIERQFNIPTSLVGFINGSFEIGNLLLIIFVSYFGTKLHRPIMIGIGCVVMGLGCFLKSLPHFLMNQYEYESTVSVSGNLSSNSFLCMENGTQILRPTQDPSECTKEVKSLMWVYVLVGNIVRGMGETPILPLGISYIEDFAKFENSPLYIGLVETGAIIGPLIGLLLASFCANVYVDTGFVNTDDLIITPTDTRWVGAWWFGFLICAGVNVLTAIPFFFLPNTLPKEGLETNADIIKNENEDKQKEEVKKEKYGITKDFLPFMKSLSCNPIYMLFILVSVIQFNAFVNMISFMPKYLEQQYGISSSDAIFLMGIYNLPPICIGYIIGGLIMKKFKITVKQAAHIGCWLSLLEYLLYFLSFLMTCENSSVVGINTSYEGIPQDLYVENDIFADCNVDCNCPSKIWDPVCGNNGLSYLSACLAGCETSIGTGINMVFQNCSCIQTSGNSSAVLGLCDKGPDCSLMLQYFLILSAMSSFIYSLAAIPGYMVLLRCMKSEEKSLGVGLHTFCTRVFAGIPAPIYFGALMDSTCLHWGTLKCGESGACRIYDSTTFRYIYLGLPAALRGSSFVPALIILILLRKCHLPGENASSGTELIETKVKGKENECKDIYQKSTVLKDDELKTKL

[6] = molecular target: T4, Solute carrier organic anion transporter family member 1B1 (Homo sapiens, UniProt Q9Y6L6); test: Inhibitors of transporters of clinical importance in the absorption and disposition of drugs, OATP1B1
T4 sequence (Q9Y6L6 whole entry): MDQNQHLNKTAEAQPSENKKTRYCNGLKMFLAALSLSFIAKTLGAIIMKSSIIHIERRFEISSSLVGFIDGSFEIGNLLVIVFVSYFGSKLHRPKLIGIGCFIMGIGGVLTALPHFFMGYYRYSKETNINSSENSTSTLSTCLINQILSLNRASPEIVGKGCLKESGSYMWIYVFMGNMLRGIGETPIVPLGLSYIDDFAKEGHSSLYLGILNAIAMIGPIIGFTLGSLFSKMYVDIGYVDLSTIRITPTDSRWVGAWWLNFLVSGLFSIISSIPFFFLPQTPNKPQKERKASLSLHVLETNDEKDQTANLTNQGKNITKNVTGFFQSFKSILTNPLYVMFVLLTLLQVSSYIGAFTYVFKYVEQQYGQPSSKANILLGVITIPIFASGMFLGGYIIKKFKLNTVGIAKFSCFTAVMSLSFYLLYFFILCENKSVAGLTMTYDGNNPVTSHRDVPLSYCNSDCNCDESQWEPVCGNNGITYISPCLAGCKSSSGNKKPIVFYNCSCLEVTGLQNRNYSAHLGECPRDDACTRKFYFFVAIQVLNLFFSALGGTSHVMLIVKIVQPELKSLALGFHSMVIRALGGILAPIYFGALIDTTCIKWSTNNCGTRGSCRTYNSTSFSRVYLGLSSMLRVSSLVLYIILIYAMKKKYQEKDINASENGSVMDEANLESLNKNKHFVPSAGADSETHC

[7] = molecular target: T5, Solute carrier organic anion transporter family member 1B3 (Homo sapiens, UniProt Q9NPD5); test: Inhibitors of transporters of clinical importance in the absorption and disposition of drugs, OATP1B3
T5 sequence (Q9NPD5 whole entry): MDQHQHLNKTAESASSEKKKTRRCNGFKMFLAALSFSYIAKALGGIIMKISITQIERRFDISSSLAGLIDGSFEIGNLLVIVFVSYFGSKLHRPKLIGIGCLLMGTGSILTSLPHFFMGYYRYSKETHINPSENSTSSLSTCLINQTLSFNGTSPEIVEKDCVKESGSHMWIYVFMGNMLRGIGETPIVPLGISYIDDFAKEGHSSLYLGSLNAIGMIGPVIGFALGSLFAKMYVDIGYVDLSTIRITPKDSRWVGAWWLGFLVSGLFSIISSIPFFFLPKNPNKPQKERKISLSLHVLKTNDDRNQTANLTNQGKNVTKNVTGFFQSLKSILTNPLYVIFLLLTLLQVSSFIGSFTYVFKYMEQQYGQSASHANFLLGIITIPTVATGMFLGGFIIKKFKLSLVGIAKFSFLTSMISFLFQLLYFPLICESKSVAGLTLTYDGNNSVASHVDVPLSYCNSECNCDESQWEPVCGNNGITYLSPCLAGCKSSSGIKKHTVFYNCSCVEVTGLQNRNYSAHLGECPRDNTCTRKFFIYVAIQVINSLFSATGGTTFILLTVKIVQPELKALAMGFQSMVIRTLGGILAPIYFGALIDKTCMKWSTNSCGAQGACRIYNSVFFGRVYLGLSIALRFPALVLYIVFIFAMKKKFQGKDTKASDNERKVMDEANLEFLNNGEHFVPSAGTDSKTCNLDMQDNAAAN

[8] = molecular target: T6, Solute carrier family 22 member 6 (Homo sapiens, UniProt Q4U2R8); test: Inhibitors of transporters of clinical importance in the absorption and disposition of drugs, OAT1
T6 sequence (Q4U2R8 whole entry): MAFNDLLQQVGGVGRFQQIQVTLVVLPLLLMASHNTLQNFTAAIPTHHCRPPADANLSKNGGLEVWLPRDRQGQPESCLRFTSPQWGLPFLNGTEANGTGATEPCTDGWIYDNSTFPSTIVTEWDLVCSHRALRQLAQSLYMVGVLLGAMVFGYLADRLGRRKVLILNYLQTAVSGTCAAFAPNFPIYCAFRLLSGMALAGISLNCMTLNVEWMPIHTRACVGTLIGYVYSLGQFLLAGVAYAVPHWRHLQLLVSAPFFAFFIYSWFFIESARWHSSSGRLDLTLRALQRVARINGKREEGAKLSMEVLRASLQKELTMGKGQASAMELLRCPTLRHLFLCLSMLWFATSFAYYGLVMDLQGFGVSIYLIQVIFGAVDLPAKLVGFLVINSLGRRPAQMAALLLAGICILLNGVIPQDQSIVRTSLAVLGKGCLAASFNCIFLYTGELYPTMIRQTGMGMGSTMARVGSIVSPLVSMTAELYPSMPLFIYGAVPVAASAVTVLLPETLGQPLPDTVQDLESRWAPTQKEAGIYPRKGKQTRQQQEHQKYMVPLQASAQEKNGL

[9] = molecular target: T7, Organic anion transporter 3 (Homo sapiens, UniProt Q8TCC7); test: Inhibitors of transporters of clinical importance in the absorption and disposition of drugs, OAT3
T7 sequence (Q8TCC7 whole entry): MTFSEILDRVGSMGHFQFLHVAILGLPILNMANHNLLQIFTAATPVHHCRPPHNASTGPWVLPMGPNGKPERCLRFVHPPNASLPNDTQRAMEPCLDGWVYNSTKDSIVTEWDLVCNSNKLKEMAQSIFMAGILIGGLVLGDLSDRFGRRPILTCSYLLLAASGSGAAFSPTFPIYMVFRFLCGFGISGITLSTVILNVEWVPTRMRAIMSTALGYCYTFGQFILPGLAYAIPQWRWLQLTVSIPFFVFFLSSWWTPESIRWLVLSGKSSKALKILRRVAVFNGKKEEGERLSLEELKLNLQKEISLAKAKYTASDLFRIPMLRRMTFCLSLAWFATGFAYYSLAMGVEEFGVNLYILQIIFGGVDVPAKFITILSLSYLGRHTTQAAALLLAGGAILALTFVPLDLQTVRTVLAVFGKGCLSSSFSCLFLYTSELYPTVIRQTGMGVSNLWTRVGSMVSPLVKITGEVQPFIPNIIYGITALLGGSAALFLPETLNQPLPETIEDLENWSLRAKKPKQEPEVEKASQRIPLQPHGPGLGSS

Sequence of ATP-binding cassette sub-family C member 3 (O15438 whole entry): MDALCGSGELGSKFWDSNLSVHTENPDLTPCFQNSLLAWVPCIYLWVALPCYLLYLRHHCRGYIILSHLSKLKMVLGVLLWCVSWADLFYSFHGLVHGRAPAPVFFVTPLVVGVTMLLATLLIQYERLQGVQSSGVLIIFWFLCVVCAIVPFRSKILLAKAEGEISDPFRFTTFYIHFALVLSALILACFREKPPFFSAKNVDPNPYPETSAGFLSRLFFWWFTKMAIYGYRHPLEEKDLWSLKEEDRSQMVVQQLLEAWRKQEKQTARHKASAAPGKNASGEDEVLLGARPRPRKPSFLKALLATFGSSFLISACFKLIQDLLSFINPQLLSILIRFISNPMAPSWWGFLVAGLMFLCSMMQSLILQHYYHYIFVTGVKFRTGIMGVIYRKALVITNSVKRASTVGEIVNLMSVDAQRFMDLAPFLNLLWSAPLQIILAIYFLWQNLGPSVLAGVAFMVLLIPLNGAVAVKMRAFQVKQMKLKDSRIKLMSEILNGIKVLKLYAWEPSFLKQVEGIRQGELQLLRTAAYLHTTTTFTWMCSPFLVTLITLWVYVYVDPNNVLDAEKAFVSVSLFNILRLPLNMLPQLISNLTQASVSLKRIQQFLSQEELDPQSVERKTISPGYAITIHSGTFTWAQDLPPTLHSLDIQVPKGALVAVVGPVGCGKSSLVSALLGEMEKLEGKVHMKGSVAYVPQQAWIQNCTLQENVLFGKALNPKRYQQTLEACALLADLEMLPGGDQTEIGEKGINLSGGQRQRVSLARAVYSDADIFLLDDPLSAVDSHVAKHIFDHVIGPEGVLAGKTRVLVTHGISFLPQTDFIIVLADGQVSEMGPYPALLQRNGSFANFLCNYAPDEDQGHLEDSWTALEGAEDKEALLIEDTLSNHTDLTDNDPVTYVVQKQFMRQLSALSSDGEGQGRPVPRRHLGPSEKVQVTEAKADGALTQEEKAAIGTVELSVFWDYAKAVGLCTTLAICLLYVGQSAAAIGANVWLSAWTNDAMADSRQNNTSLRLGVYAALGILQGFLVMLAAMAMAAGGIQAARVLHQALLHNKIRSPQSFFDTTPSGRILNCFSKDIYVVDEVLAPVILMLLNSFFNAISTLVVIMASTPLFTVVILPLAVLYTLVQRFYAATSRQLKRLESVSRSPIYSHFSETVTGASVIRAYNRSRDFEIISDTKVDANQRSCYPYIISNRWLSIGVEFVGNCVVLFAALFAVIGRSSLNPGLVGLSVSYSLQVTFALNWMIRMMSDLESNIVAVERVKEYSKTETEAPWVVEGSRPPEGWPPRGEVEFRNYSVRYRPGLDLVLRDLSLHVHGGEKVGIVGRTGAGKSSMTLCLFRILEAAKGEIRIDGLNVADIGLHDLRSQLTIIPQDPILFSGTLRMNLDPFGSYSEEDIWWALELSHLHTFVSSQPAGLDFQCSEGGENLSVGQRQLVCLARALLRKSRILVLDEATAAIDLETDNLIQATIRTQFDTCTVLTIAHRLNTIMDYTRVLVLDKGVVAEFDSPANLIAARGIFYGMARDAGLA
Sequence of ATP-binding cassette sub-family C member 2 (Q92887 whole entry): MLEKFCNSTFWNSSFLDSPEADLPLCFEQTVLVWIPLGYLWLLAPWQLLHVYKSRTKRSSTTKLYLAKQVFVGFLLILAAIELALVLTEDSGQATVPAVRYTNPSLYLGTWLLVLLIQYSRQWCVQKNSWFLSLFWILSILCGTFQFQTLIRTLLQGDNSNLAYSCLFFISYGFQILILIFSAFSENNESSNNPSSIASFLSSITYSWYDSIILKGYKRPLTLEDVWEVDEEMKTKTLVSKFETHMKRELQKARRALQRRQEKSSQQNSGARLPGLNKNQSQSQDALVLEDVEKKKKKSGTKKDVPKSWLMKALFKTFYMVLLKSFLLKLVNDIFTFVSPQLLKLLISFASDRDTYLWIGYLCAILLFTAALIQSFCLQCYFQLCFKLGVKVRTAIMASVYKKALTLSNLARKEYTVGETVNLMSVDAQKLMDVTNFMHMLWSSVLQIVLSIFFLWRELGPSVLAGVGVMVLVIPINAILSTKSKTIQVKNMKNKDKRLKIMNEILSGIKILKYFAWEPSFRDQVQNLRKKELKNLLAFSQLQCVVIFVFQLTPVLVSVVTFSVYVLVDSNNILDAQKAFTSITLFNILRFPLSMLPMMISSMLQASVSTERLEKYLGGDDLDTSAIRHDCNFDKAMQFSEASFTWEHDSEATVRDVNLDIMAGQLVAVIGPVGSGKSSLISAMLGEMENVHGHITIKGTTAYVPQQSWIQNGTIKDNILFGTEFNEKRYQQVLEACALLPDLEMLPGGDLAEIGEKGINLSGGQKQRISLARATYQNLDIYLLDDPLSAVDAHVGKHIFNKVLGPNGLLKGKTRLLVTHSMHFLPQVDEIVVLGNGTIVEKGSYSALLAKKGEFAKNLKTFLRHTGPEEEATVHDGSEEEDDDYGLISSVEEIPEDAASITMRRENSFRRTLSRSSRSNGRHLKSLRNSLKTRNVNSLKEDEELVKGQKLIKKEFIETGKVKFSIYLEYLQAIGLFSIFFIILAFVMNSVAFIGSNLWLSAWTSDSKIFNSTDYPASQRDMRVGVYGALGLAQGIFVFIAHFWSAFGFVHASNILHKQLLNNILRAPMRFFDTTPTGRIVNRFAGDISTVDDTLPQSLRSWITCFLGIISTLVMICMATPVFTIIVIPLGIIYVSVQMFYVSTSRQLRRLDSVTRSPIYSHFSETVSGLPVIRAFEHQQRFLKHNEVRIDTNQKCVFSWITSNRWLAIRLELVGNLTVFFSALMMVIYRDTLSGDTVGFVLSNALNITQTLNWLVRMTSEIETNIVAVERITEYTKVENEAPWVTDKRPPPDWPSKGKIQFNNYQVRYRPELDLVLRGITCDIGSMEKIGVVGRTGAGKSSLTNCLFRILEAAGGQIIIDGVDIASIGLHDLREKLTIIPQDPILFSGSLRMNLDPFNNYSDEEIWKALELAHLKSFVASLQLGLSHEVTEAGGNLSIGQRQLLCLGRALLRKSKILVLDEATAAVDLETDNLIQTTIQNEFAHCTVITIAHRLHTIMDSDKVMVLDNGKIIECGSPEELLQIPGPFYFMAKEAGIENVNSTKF

Which Activity [1] does the source give for `Cc1ccc(-c2cc(C(F)(F)F)nn2-c2ccc(S(N)(=O)=O)cc2)cc1` [CELECOXIB] here?
The Activity was “transporter inhibitor”.

Which Activity [1] does the source give for `O=C(O)Cc1ccccc1Nc1c(Cl)cccc1Cl` [DICLOFENAC] here?
Its Activity is “transporter inhibitor”.

With `Nc1nc(=O)n([C@@H]2CS[C@H](CO)O2)cc1F` [EMTRICITABINE] as the molecule, how does the Activity [2] read?
Its Activity is “transporter inhibitor”.

And the Activity [3]?
Its Activity is “transporter inhibitor”.

Which Activity [4] does the source give for `CCC(=O)O[C@@H](O[P@](=O)(CCCCc1ccccc1)CC(=O)N1C[C@H](C2CCCCC2)C[C@H]1C(=O)O)C(C)C` [FOSINOPRIL] here?
The Activity was “transporter inhibitor”.

With `Cc1cccc(C)c1OCC(=O)N[C@@H](Cc1ccccc1)[C@@H](O)C[C@H](Cc1ccccc1)NC(=O)[C@H](C(C)C)N1CCCNC1=O` [LOPINAVIR] as the molecule, how does the Activity [5] read?
The Activity was “transporter inhibitor”.

What about the Activity [6] of the same molecule?
Its Activity is “transporter inhibitor”.

What about the Activity [7] of the same molecule?
Its Activity is “transporter inhibitor”.

How did the Activity [8] turn out when `CO[C@@H]1[C@@H](OC(N)=O)[C@@H](O)[C@H](Oc2ccc3c(O)c(NC(=O)c4ccc(O)c(CC=C(C)C)c4)c(=O)oc3c2C)OC1(C)C` [NOVOBIOCIN] was run?
Its Activity is “transporter inhibitor”.

And the Activity [9]?
The Activity was “transporter inhibitor”.

For `CCCN(CCC)S(=O)(=O)c1ccc(C(=O)O)cc1` [PROBENECID], which Activity [9] is on record?
Its Activity is “transporter inhibitor”.

Which Activity [4] does the source give for `C[C@H](CSC(=O)c1ccccc1)C(=O)N1C[C@@H](Sc2ccccc2)C[C@H]1C(=O)O` [ZOFENOPRIL] here?
Its Activity is “transporter inhibitor”.

— ChEMBL document CHEMBL1743141, “Membrane transporters in drug development” (Nat Rev Drug Discov, 2010)
